Where two headings read alike, the source gives them in different places.
How the values were obtained:
[1] = Mouse oral pharmacokinetics (satellite infected animals); type: in vivo
[2] = Intravenous pharmacokinetics of ETX1317; type: in vivo; details: male, dog, i.v. 1 mg/kg
Method: (§1) Intravenous pharmacokinetics of ETX1317 investigated in jugular vein cannulated male Sprague–Dawley rats (Charles River Laboratories, n = 3/route) at a dose of 10 mg/kg formulated in 0.9% saline. Oral pharmacokinetics of ETX0282 was evaluated at a 10 mg/kg equivalent dose of ETX1317 formulated in 25:75 PEG 400:WFI. The pH of each formulation was verified to fall within a range of 4–7 and were confirmed to be in solution prior to dosing. Potency was verified by LC/MS/MS. Dose volumes were 5 and 10 mL/kg for ETX1317(i.v.) and ETX0282(p.o.), respectively for rats. In both dog (male, 3/route) and monkey (male, 3/route) studies, i.v. and p.o. doses were formulated on 25:75 PEG 400:WFI (pH ∼5) and administered at a dose of ∼1 mg/kg. Dose volume was 1 mL/kg for both routes in dogs and monkeys with the i.v. dose infused over 15 min. For oral doses, gavage tubes were flushed with 10 mL after administration of the dose. i.v. doses were sterile-filtered through 0.22 μm PVDF membrane prior to administration into the cephalic vein.
(§2) Blood sampling (∼1 mL) for dogs and monkeys was carried out via venipuncture of the jugular vein at the following time points:
(§3) i.v.: pre-dose, 0.083, 0.25 (prior to end of infusion), 0.5, 1, 1.5, 2, 4, 6, 8, 12, and 24 h post-dose
(§4) Blood samples were centrifuged at 3200 rpm for 10 min at approximately 5 °C. Plasma samples (500 μL) were transferred to 96-well plate tubes (MatrixTech, 0.5 mL). An equal amount (500 μL) of SIGMAFAST protease inhibitor solution (1 tablet dissolved in 10 mL distilled water, Sigma-Aldrich Part No. S8820) was added as a preservative to the 96-well plate tubes resulting in a 1:1 dilution. Diluted plasma samples were stored at −80 ± 10 °C.
(§5) Urine collection was collected directly into Nalgene bottles placed under metabolism cages with frozen ice packs to chill urine over the collection interval. Urine was collected 0–12, and 12–24 h post-dose. Following collection of each urine sample, the total urine weight was recorded and 3 mL aliquots were retained for LC/MS/MS analysis.
(§6) Non-compartmental analysis of time vs concentration data for ETX1317, ETX0282, CPD, and CPDP was completed using WinNonlin 8.1 (Pharsite Corporation, Mountain View CA). The maximum concentration (Cmax) was the highest observed concentration; Tmax was the earliest time at which Cmax occurred; and the elimination half-life was estimated as ln 2/kel, where kel is the elimination rate constant derived from the slope of the log concentration versus time profile. The area under the concentration–time curve from 0 h to the last time point (AUC0-tlast) was calculated by linear trapezoidal approximation. Clearance (CL) was estimated as Dose/AUC0-tlast and the steady state volume of distribution (Vd,ss) was estimated as CL* MRT, where MRT = AUMC/AUC (MRT = mean residence time and AUMC = area under the moment curve). Oral bioavailability (F) was determined from ETX1317 concentrations and normalizing doses to free acid equivalence, where F = AUCp.o.*(dosei.v.)/AUCi.v.*(dosep.o.).

[3] = Intravenous pharmacokinetics of ETX1317; type: in vivo, monkey
Method: as §1, §2, §3, §4, §5, §6

Plasma protein binding [4] = type: in vitro ADME, rat
Method: (§7) Plasma protein binding was determined by rapid equilibrium dialysis. Plasma was freshly prepared from blood samples drawn in to EDTA (anticoagulant) containing tubes. Plasma was prepared using a table-top centrifuge and spun per instruction of the tube manufacturer and specifications (Beckton, Dickinson and Company, Franklin Lakes, NJ) and placed on ice prior to use.
(§8) Pooled plasma samples were centrifuged at 2000 rpm (approximately 1400g) for 15 min at 4 °C to remove debris. Approximately 90% of the clear supernatant fraction was transferred to a separate tube. Samples (500 μL) were then spiked with a 100× stock solution 100 μM, 0.5 mM, and 10 mM ETX1317 in DMSO respectively for 1, 5, and 100 μM final concentrations, transferred to the top of the filter chambers, and allowed to equilibrate for 15 min prior to centrifugation. The filtrate tubes were centrifuged at 14000g for 15 min at 4 °C. Next, 50 μL of the filtrate was precipitated with 300 μL of acetonitrile containing 250 ng/mL of carbutamide as the internal standard and the samples were analyzed by LC/MS/MS analysis.

Plasma protein binding [5] = type: in vitro ADME, dog
Method: as §7, §8

Plasma protein binding [6] = type: in vitro ADME, human
Method: as §7, §8

Excretion into the bile = details: in vivo
Method: Based upon the non-clinical PK data, a range of 60–80% bioavailability and a moderate absorption rate of 0.5–1.0 h^–1 have been considered for humans. In consideration of these predicted parameters, mean percent fT > CT of 1 μg/mL (2× MIC of 0.5 μg/mL) estimates for a 500 mg ETX1317 equiv q12h dose of ETX0282 are summarized in Table S3.

[7] = unbound ETX1317 after oral ETX0282 10 mg/kg
[8] = unbound ETX1317 after oral ETX0282 50 mg/kg
[9] = unbound ETX1317 after oral ETX0282 200 mg/kg
[10] = unbound ETX1317 after oral ETX0282 400 mg/kg
[11] = male, monkey, plasma, iv, i.v. 0.87 mg/kg

Compound: CC1=C[C@@H](C(N)=O)N2C[C@@H]1N(O[C@H](F)C(=O)O)C2=O [ETX1317]
- half-life ([1]; mouse, in vivo, mice, once formed from ETX0282): 1.3 h
- %Time > f[CT] 0.25 μg/mL ([1]; oral ETX0282 10 mg/kg): 47%
- %Time > f[CT] 0.5 μg/mL ([1]; oral ETX0282 10 mg/kg): 25%
- %Time > f[CT] 1.0 μg/mL ([1]; oral ETX0282 10 mg/kg): 12%
- %Time > f[CT] 2.0 μg/mL ([1]; oral ETX0282 10 mg/kg): 8%
- %Time > f[CT] 0.25 μg/mL ([1]; oral ETX0282 50 mg/kg): 88%
- %Time > f[CT] 0.5 μg/mL ([1]; oral ETX0282 50 mg/kg): 50%
- %Time > f[CT] 1.0 μg/mL ([1]; oral ETX0282 50 mg/kg): 29%
- %Time > f[CT] 2.0 μg/mL ([1]; oral ETX0282 50 mg/kg): 28%
- %Time > f[CT] 0.25 μg/mL ([1]; oral ETX0282 200 mg/kg): 100%
- %Time > f[CT] 0.5 μg/mL ([1]; oral ETX0282 200 mg/kg): 100%
- %Time > f[CT] 1.0 μg/mL ([1]; oral ETX0282 200 mg/kg): 58%
- %Time > f[CT] 2.0 μg/mL ([1]; oral ETX0282 200 mg/kg): 35%
- %Time > f[CT] 0.25 μg/mL ([1]; oral ETX0282 400 mg/kg): 100%
- %Time > f[CT] 0.5 μg/mL ([1]; oral ETX0282 400 mg/kg): 100%
- %Time > f[CT] 1.0 μg/mL ([1]; oral ETX0282 400 mg/kg): 75%
- %Time > f[CT] 2.0 μg/mL ([1]; oral ETX0282 400 mg/kg): 38%
- fAUClast [1, 7]: 4700 ng·h/mL
- fCmax [1, 7]: 3.9 µg/mL
- fAUClast [1, 8]: 23000 ng·h/mL
- fCmax [1, 8]: 21 µg/mL
- fAUClast [1, 9]: 61000 ng·h/mL
- fCmax [1, 9]: 57 µg/mL
- fAUClast [1, 10]: 73000 ng·h/mL
- fCmax [1, 10]: 90 µg/mL
- AUC ([2]; plasma): 2760 ± 340 ng·h/mL
- Cmax ([2]; plasma): 2270 ± 490 ng/mL
- half-life ([2]; plasma): 0.8 ± 0.1 h
- clearance ([2]; plasma, read-out: CL): 5.7 ± 0.7 mL/min/kg
- Vd ([2]; plasma, read-out: Vd,ss): 0.38 ± 0.05 L/kg
- clearance ([2]; urine and plasma, read-out: renal CL): 1.1 ± 0.3 mL/min/kg
- renal clearance as % of total clearance ([3]; based upon excretion in the urine, range 23–63%): ~40%
- AUC [3, 11]: 2680 ± 210 ng·h/mL
- Cmax [3, 11]: 3120 ± 230 ng/mL
- half-life [3, 11]: 1.1 ± 0.1 h
- clearance ([3]; male, monkey, plasma, iv, i.v. 0.87 mg/kg, read-out: CL): 5.7 ± 0.7 mL/min/kg
- Vd ([3]; male, monkey, plasma, iv, i.v. 0.87 mg/kg, read-out: Vd,ss): 0.31 ± 0.02 L/kg
- clearance ([3]; male, monkey, urine and plasma, iv, i.v. 0.87 mg/kg, read-out: renal CL): 2.2 mL/min/kg
- Proportion unbound (Plasma protein binding [4]; 1 µM): 94%
- Proportion unbound (Plasma protein binding [4]; 5 µM): 97%
- Proportion unbound (Plasma protein binding [4]; 100 µM): 83%
- Proportion unbound (Plasma protein binding [5]; 1 µM): 92%
- Proportion unbound (Plasma protein binding [5]; 5 µM): 100%
- Proportion unbound (Plasma protein binding [5]; 100 µM): 81%
- Proportion unbound (Plasma protein binding [6]; 1 µM): 82%
- Proportion unbound (Plasma protein binding [6]; 5 µM): 99%
- Proportion unbound (Plasma protein binding [6]; 100 µM): 80%
- excretion into the bile (Excretion into the bile): minimal excretion

From PMC7297445, “Pharmacokinetic/Pharmacodynamic Determination and Preclinical Pharmacokinetics of the β-Lactamase Inhibitor ETX1317 and Its Orally Available Prodrug ETX0282” (ACS Infectious Diseases, 2020)
